Results on 4 compounds are retold here after patent US20160002141A1, “SYNTHESIS OF CALEBIN-A AND ITS BIOLOGICALLY ACTIVE ANALOGS” (priority 2014, published 2016).

What is called melting point is the temperature, or range, at which the solid turns liquid.

In the case of `O=C(/C=C/c1ccc(O)cc1)COC(=O)/C=C/c1ccc(O)cc1` [Example 10d, 4-Hydroxycinnamoylmethyl 4-hydroxycinnamate], the melting point lay within 289 to 291 °C. As for `COc1cc(/C=C/C(=O)COC(=O)/C=C/c2ccc(O)c(OC)c2)ccc1O` [Example 10a, Feruloylmethyl ferulate], the figure is 138 to 140 °C. As for `COc1cc(/C=C/C(=O)COC(=O)/C=C/c2ccc(O)cc2)ccc1O` [Example 10b, Feruloylmethyl 4-hydroxycinnamate], the melting point was 181.4 to 183.4 °C. The figure for `COc1cc(/C=C/C(=O)OCC(=O)/C=C/c2ccc(O)cc2)ccc1O` [Example 10c, 4-Hydroxycinnamoylmethyl ferulate] is 175.7 to 177.7 °C.
